Values of other authors in patent US20090093506A1, “Copper antagonist compositions” (priority 2007, published 2009).
Blank lines part the entries; values can stand above or below the compound they belong to.

Tests used:
[1] = not given; remark: listed apart in the source
[2] = solution of the free base itself

solubility in acetone (acetone): insoluble | solubility in alcohol (alcohol): slightly soluble | solubility in benzene (benzene): insoluble | solubility in carbon tetrachloride (carbon tetrachloride): insoluble | solubility in ether (ether): insoluble | solubility in water (water): freely soluble
Compound: CC(C)(S)[C@@H](N)C(=O)O [Penicillamine, 3-mercapto-D-valine]

Compound: CC(=O)[O-].CC(=O)[O-].[Zn+2] [Zinc acetate]
long-term or major side effects ([1]; patients with Wilson's disease): has not shown any long-term or major side effects

rhabdomyolysis ([1]; patients receiving the drug, withdrawn from the U.S. market August 2001): seen to occur more often
Compound: COCc1c(C(C)C)nc(C(C)C)c(/C=C/[C@@H](O)C[C@@H](O)CC(=O)O)c1-c1ccc(F)cc1 [cerivastatin]

pH of a solution [2]: 14
Compound: NCCNCCNCCN [trientine, triethylenetetramine]
